Laboratory results taken from US10294202B2, “Pyrrolidinones as herbicides” (FMC Corporation, priority 2013, dated 2019).

Assays:
barnyardgrass [1] = assay: Test A pre-/postemergence herbicide test; format: in vivo, Echinochloa crus-galli
Summary of the method: (§1)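 Visual injury ratings, 0 = no effect, 100 = complete control, taken ~10 days after treatment against untreated greenhouse controls. Preemergence: directed soil spray onto seeded loam/sand pots. Postemergence: spray onto plants at one- to two-leaf stage, 2–10 cm tall.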

kochia = assay: Test A pre-/postemergence herbicide test; format: in vivo, Kochia scoparia; settings: for Plant response rating, Kochia: 0 to 100 scale
Summary of the method: as §1

ragweed = assay: Test A pre-/postemergence herbicide test; format: in vivo, Ambrosia elatior; settings: for Plant response rating, Ragweed: 0 to 100 scale
Summary of the method: as §1

ryegrass, Italian = assay: Test A pre-/postemergence herbicide test; format: in vivo, Lolium multiflorum; settings: for Plant response rating, Ryegrass, Italian: 0 to 100 scale
Summary of the method: as §1

giant foxtail = assay: Test A pre-/postemergence herbicide test; format: in vivo, Setaria faberii; settings: for Plant response rating, Foxtail, Giant: 0 to 100 scale
Summary of the method: as §1

pigweed = assay: Test A pre-/postemergence herbicide test; format: in vivo, Amaranthus retroflexus; settings: for Plant response rating, Pigweed: 0 to 100 scale
Summary of the method: as §1

wheat = assay: Test A pre-/postemergence herbicide test; format: in vivo, Triticum aestivum; settings: Postemergence; for Plant response rating, Wheat: 125 g ai/ha, 0 to 100 scale; for Wheat plant response rating (0 to 100 scale, 0 is no effect, 100 is complete control): 500 g ai/ha
Summary of the method: as §1

corn = assay: Test A pre-/postemergence herbicide test; format: in vivo, Zea mays; settings: Postemergence; for Plant response rating, Corn: 125 g ai/ha, 0 to 100 scale; for Corn plant response rating (0 to 100 scale, 0 is no effect, 100 is complete control): 500 g ai/ha
Summary of the method: as §1

blackgrass = assay: Test A postemergence herbicide test; format: in vivo, Alopecurus myosuroides; settings: for Plant response rating, Blackgrass: 125 g ai/ha, 0 to 100 scale; for Blackgrass plant response rating (0 to 100 scale, 0 is no effect, 100 is complete control): 500 g ai/ha
Summary of the method: (§2)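 Visual injury rating, 0 (no effect) to 100 (complete control), versus untreated controls ~10 days after treatment. Postemergence spray applied at one- to two-leaf stage, plants 2–10 cm tall, potted in loam soil/sand. Greenhouse-held.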

galium = assay: Test A postemergence herbicide test; format: in vivo, Galium aparine; settings: for Plant response rating, Galium: 125 g ai/ha, 0 to 100 scale; for Galium plant response rating (0 to 100 scale, 0 is no effect, 100 is complete control): 500 g ai/ha
Summary of the method: as §2

rice = assay: Test B flooded paddy test; format: in vivo, Oryza sativa; settings: 500 g ai/ha, Flood; scale of 0 to 100 where 0 is no effect and 100 is complete control
Summary of the method: (§3)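 2-leaf plants; flood 3 cm over soil; compound into paddy water; depth held. Greenhouse 13–15 d. Visual rating vs controls, 0 (no effect) to 100 (complete control); dash = not tested.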

sedge, umbrella = assay: Test B flooded paddy test; format: in vivo, Cyperus difformis; settings: 500 g ai/ha, Flood; scale of 0 to 100 where 0 is no effect and 100 is complete control
Summary of the method: as §3

ducksalad = assay: Test B flooded paddy test; format: in vivo, Heteranthera limosa; settings: 500 g ai/ha, Flood; scale of 0 to 100 where 0 is no effect and 100 is complete control
Summary of the method: as §3

barnyardgrass [2] = assay: Test B flooded paddy test; format: in vivo, Echinochloa crus-galli; settings: 500 g ai/ha, Flood; scale of 0 to 100 where 0 is no effect and 100 is complete control
Summary of the method: as §3

[3] = 125 g ai/ha, visual rating, 0 to 100 scale, 0 no effect, 100 complete control, approximately 10 days, preemergence
[4] = 125 g ai/ha, visual rating, 0 no effect, 100 complete control, approximately 10 days, preemergence
[5] = Postemergence, 125 g ai/ha, 0 is no effect, 100 is complete control
[6] = preemergence, 500 g ai/ha, 0 is no effect and 100 is complete control
[7] = 0 is no effect, 100 is complete control
[8] = Postemergence, 125 g ai/ha, 0 no effect, 100 complete control
[9] = 0 no effect, 100 complete control

| SMILES | Plant response rating, Barnyardgrass (barnyardgrass [1]; [3]) | Barnyardgrass plant response rating (0 to 100 scale, 0 is no effect, 100 is complete control) (barnyardgrass [1]; Postemergence, 500 g ai/ha) | Plant response rating, Kochia (kochia; [4]) | Kochia plant response rating (0 to 100 scale, 0 is no effect, 100 is complete control) (kochia; Postemergence, 500 g ai/ha) | Plant response rating, Ragweed (ragweed; [4]) | Ragweed plant response rating (0 to 100 scale, 0 is no effect, 100 is complete control) (ragweed; Postemergence, 500 g ai/ha) | Plant response rating, Ryegrass, Italian (ryegrass, Italian; [4]) | Ryegrass, Italian plant response rating (0 to 100 scale, 0 is no effect, 100 is complete control) (ryegrass, Italian; Postemergence, 500 g ai/ha) | Plant response rating, Foxtail, Giant (giant foxtail; [4]) | Foxtail, Giant plant response rating (0 to 100 scale, 0 is no effect, 100 is complete control) (giant foxtail; Postemergence, 500 g ai/ha) | Plant response rating, Pigweed (pigweed; [4]) | Pigweed plant response rating (0 to 100 scale, 0 is no effect, 100 is complete control) (pigweed; Postemergence, 500 g ai/ha) | Wheat plant response rating (0 to 100 scale, 0 is no effect, 100 is complete control) (wheat) | Corn plant response rating (0 to 100 scale, 0 is no effect, 100 is complete control) (corn) | Blackgrass plant response rating (0 to 100 scale, 0 is no effect, 100 is complete control) (blackgrass) | Galium plant response rating (0 to 100 scale, 0 is no effect, 100 is complete control) (galium) | Plant response rating, Rice (rice) | Plant response rating, Sedge, Umbrella (sedge, umbrella) | Plant response rating, Ducksalad (ducksalad) | Plant response rating, Barnyardgrass (barnyardgrass [2]) | further results |
| --- | --- | --- | --- | --- | --- | --- | --- | --- | --- | --- | --- | --- | --- | --- | --- | --- | --- | --- | --- | --- | --- |
| CCCN1CC(c2ccc(C(F)(F)F)cc2)C(C(=O)Nc2cccc(F)c2F)C1=O (stereo not drawn) [Compound 182] | 0 | 0 | 0 | 0 | 0 | 0 | 0 | 0 | 50 | 10 | 0 | 0 | 0 | 0 | 0 | 0 | 0 | 0 | 30 | 0 | Plant response rating, Barnyardgrass (barnyardgrass [1]; Postemergence, 125 g ai/ha, 0 to 100 scale, 0 is no effect, 100 is complete control): 0; Plant response rating, Barnyardgrass (barnyardgrass [1]; preemergence, 500 g ai/ha, 0 to 100 scale, 0 is no effect and 100 is complete control): 0; Plant response rating, Kochia (kochia; [5]): 0; Plant response rating, Kochia (kochia; [6]): 0; Plant response rating, Ragweed (ragweed; [5]): 0; Plant response rating, Ragweed (ragweed; [6]): 0; Plant response rating, Ryegrass, Italian (ryegrass, Italian; [5]): 0; Plant response rating, Ryegrass, Italian (ryegrass, Italian; [6]): 0; Plant response rating, Foxtail, Giant (giant foxtail; [5]): 0; Plant response rating, Foxtail, Giant (giant foxtail; [6]): 70; Plant response rating, Pigweed (pigweed; [5]): 0; Plant response rating, Pigweed (pigweed; [6]): 0; Plant response rating, Wheat (wheat; [7]): 0; Plant response rating, Corn (corn; [7]): 0; Plant response rating, Blackgrass (blackgrass; [7]): 0; Plant response rating, Galium (galium; [7]): 0 |
| Cc1cc(C2CNC(=O)C2C(=O)Nc2cccc(F)c2F)ccc1F (racemic) [Compound 141] | 90 | 90 | 0 | 20 | 0 | 40 | 0 | 40 | 50 | 50 | 0 | 0 | 30 | 50 | 50 | 50 | 0 | 0 | 100 | 50 | Plant response rating, Barnyardgrass (barnyardgrass [1]; Postemergence, 125 g ai/ha, 0 to 100 scale, 0 no effect, 100 complete control): 80; Plant response rating, Barnyardgrass (barnyardgrass [1]; preemergence, 500 g ai/ha, 0 to 100 scale (0 no effect, 100 complete control)): 90; Plant response rating, Kochia (kochia; [8]): 0; Plant response rating, Kochia (kochia; preemergence, 500 g ai/ha): 20; Plant response rating, Ragweed (ragweed; [8]): 0; Plant response rating, Ragweed (ragweed; preemergence, 500 g ai/ha): 0; Plant response rating, Ryegrass, Italian (ryegrass, Italian; [8]): 0; Plant response rating, Ryegrass, Italian (ryegrass, Italian; preemergence, 500 g ai/ha): 20; Plant response rating, Foxtail, Giant (giant foxtail; [8]): 0; Plant response rating, Foxtail, Giant (giant foxtail; preemergence, 500 g ai/ha): 90; Plant response rating, Pigweed (pigweed; [8]): 0; Plant response rating, Pigweed (pigweed; preemergence, 500 g ai/ha): 0; Plant response rating, Wheat (wheat; [9]): 0; Plant response rating, Corn (corn; [9]): 0; Plant response rating, Blackgrass (blackgrass; [9]): 0; Plant response rating, Galium (galium; [9]): 20 |
